{"source": "patent US20210176992A1", "about": "“FU[…] COMBINATION OF A CL[…] AND AN AZOLE” (Bayer Aktiengesellschaft, priority 2018, published 2021)", "key": {"[1]": {"test_system": "DON content", "assay": "Field trial winter wheat 2017, deoxynivalenol quantification by LC-MS/MS", "assay_type": "in vivo", "settings": "Laacherhof 2017, application at growth stage 63-65, J1446 500 g/ha, prothioconazole 125 g a.i./ha, control 3583 ppb DON content", "procedure": "(§1) Impact of Different Compounds on Fusarium Infestation and the DON Content; Field Trial Winter Wheat 2017 at the Laacherhof, Germany\n(§2) Application was done on Jun. 1, 2017 at growth stage 63-65. Evaluation was done Jun. 20, 2017. Quantification of deoxynivalenol was performed by LC-MS/MS analysis using a Waters UPLC coupled to a Sciex API4000 mass spectrometer. The column used was a Waters Acquity HSS T3 (2.1×50 mm, 1.8 μm) and solvents were 2 mM ammonium acetate/1% acedic acid and methanol/2 mM ammonium acetate/1% acetic acid used in a 4 min gradient. The mass spectrometer was operated in negative ionization mode (MRM transitions: deoxynivalenol 355>265, 3-acetyl-deoxynivalenol 387>307, respectively). Quantification was performed by external calibration using reference compounds.\n(§3) On the other hand, whereas infestation was lower upon application of C. rosea J1446 alone (45 vs. 63%), DON reduction after application of the combination of prothioconazole and C. rosea J1446 was even bigger (60 vs. 30%)."}, "[2]": {"test_system": "Fusarium", "assay": "Field trial winter wheat 2017, visual assessment of Fusarium control", "assay_type": "in vivo", "settings": "Laacherhof 2017, application at growth stage 63-65, evaluation Jun. 20, 2017, J1446 500 g/ha, prothioconazole 125 g a.i./ha, control 38% infestation", "procedure": "as §1, §2, §3"}}, "note": "Values joined by “and” are separate entries in the source; they are usually repeats but may differ in a detail not shown here. Equal values may be shown once.", "data": [{"smiles": "OC(Cc1ccccc1Cl)(Cn1nc[nH]c1=S)C1(Cl)CC1", "note": "(stereo not drawn) [Prothioconazole, prothioconazole]", "values": [{"measurement": "DON Reduction", "setting": "[1]", "result": 41, "unit": "%"}, {"measurement": "DON Reduction", "setting": "[1]; listed as prothioconazole", "result": "40% and 41%"}, {"measurement": "Visual Assessment Fusarium-Control", "setting": "[2]", "result": 66, "unit": "%"}]}]}
